From patent US6376212B1, “Polypeptide compounds and nucleotide sequences promoting resistance to eutypa dieback in plants” (Societe des Domaines Viticoles Martell, priority 1997, dated 2002)

Assays:
[1] = test system: eutypine reductase; experiment: Conversion of eutypine to eutypinol: effect of reductase inhibitors; format: biochemical, grapevine
Excerpt: The conversion of eutypine to eutypinol is catalyzed by a non-membrane enzyme, which specifically requires NADPH as co-factor. Its activity is reduced by reductase inhibitors such as disulfiram and parahydroxymercuribenzoic acid, confirming its membership of this group of enzymes. It has been called “eutypine reductase”. The reaction scheme is shown below. [drawing 2]

[2] = target: T1, protein encoded in the VRER gene (Vigna radiata, UniProt Q9SQK0); experiment: Biochemical characteristics of the protein encoded in the VRER gene (substrate reduction with NADPH); conditions: in the presence of NADPH
T1 sequence (Q9SQK0 1-325): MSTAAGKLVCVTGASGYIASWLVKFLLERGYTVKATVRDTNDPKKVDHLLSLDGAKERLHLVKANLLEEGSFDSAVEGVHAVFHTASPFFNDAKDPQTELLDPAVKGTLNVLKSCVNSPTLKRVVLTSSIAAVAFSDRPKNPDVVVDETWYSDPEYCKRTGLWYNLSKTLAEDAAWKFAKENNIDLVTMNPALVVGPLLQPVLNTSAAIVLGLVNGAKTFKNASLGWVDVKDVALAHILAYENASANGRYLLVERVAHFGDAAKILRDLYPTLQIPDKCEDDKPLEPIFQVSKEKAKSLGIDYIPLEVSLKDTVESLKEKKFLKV
Excerpt: The protein encoded in the VRER gene was characterized biochemically. […] It was also investigated whether this protein was capable of reducing other substrates.

[3] = test system: protoplasts obtained from leaves of vitroplants of Vitis vinifera cv. Cabernet Sauvignon; experiment: Viability of leaf protoplasts cultured with eutypine or eutypinol; format: cell-based; conditions: for Viability after 48 hours: protoplasts 4.5×10^5/ml
Method: (§1) The protoplasts (4.5×10^5/ml) are cultured in the presence of eutypine or eutypinol for 48 hours.

[4] = test system: grapevine cells; experiment: Consumption of oxygen of grapevine cells; format: cell-based; conditions: activation at low dose
Method: Eutypine affects the functioning of the membrane systems of the grapevine cells. It causes the acidification of the cytoplasm, the reduction of leucine transport, the activation at low dose of the consumption of oxygen and its inhibition above 160 μM, and a diminution of the energy load of the cells.

[5] = test system: protoplasts of Ugni blanc; experiment: Degradation of eutypine by protoplasts (detoxification activity); format: in vitro ADME, Vitis vinifera; conditions: Ugni blanc (very sensitive); eutypine 100 μM, 1 hour, 30° C.
Method: (§2) The protoplasts (10^6/ml) obtained from leaves of vitroplants are incubated for 1 hour at 30° C. in the presence of eutypine (100 μM; 0.4 kBq). Then, the phenylacetylenic compounds are extracted, separated by thin layer chromatography and the metabolic rate of eutypine is calculated after determination of the radioactivity associated with eutypine and eutypinol.

[6] = test system: protoplasts of Merlot; experiment: as above; format: in vitro ADME, Vitis vinifera; conditions: Merlot (tolerant); eutypine 100 μM, 1 hour, 30° C.
Method: as §2

[7] = test system: protoplasts of Cabernet Sauvignon; experiment: as above; format: in vitro ADME, Vitis vinifera; conditions: Cabernet Sauvignon (sensitive); eutypine 100 μM, 1 hour, 30° C.
Method: as §2

[8] = test system: grapevine vitroplants; experiment: Application of eutypine to grapevine vitroplants; format: in vivo
[9] = test system: mitochondria; experiment: Decoupling of oxidative phosphorylation in mitochondria; format: biochemical
Method: The mode of action of eutypine was confirmed by investigating its effects on the functioning of mitochondria. Eutypine acts as a decoupling agent of oxidative phosphorylation. The complete decoupling of the mitochondria is attained at concentrations of eutypine close to 150 μM.

[10] = Viability of leaf protoplasts cultured with eutypine or eutypinol; format: cell-based, Vitis vinifera; conditions: Vitis vinifera, protoplasts 4.5×10^5/ml, 48 hours, read-out: Viability after 48 hours
Method: as §1

[11] = test system: untransformed calluses (GWT); experiment: Biotest II: growth of calluses on media containing eutypine; conditions: 500 μM of eutypine; wildtype calluses
[12] = test system: transformed (GA, GB, GC, GD) grapevine cells; experiment: Biotest I: mortality of grapevine cells in suspension with eutypine (erythrosine); format: cell-based, Vitis vinifera cv Gamay
Method: (§3) In the biotest I, the percentage of dead cells was estimated by means of the erythrosine reagent. The concentration of eutypine inducing a percentage of dead cells of 50% is determined in the wildtype strain and in the transformed varieties.

[13] = test system: untransformed (GWT) grapevine cells; experiment: as above; format: cell-based, Vitis vinifera cv Gamay; conditions: GWT wildtype
Method: as §3

[14] = test system: protoplasts obtained from grapevine leaves; experiment: Tolerance of leaf protoplasts to eutypine; format: cell-based; conditions: Cabernet Sauvignon protoplasts compared with Merlot protoplasts
Excerpt: the eutypine applied to simplified biological systems causes more serious symptoms in the varieties sensitive to eutypa dieback than in varieties of grapevines tolerant to this disease.

[15] = test system: grapevine cells; experiment: Penetration of eutypine into grapevine cells; format: cell-based
Excerpt: The investigation of the mode of action of eutypine in the grapevine cells was made possible owing to the availability of eutypine in the unlabelled form and in the radioactive form, labelled with carbon 14.
This toxic molecule then accumulates in the cytoplasm by an acid trapping mechanism and, owing to its lipophilic character, inserts itself into the lipids of the membranes.

[16] = test system: transformed calluses (GA); experiment: Biotest II: growth of calluses on media containing eutypine; conditions: 500 μM of eutypine; GA variety
[17] = test system: transformed (UBT) calluses of Vitis vinifera cv Ugni blanc; experiment: Biotest II: development of calluses in the presence of eutypine; format: cell-based
Method: (§4) The transformation experiments were also performed on calluses of Vitis vinifera cv Ugni blanc by making use of the same experimental protocol as that used for the transformation of the calluses of Vitis vinifera cv. Gamay.
(§5) The analysis of the behaviour of the calluses of Vitis vinifera cv Ugni blanc towards eutypine was performed by using biotest II.

[18] = test system: untransformed (UBWT) calluses of Vitis vinifera cv Ugni blanc; experiment: as above; format: cell-based
Method: as §4, §5

[19] = Reduction of eutypine by lysate of E. coli overexpressing the VRER protein; format: biochemical, Vigna radiata; conditions: NADPH, radioactive eutypine, thin layer chromatography
Excerpt: For that, the complementary DNA of the VRER gene was cloned in an expression vector, then transferred into the bacteria. The lysate of these bacteria which overexpress the protein corresponding to the VRER gene uses the co-factor NADPH to reduce eutypine.

O=C(O)c1cc[c]([Hg][OH])cc1 [parahydroxymercuribenzoic acid]
activity of eutypine reductase in the presence of reductase inhibitor [1]: reduced

O=Cc1ccccc1 [benzaldehyde]
reduction by the ER protein [2]: reduced

CCCCCC=O [hexanal]
reduction by the ER protein [2]: reduced

C=C(C)C#Cc1cc(CO)ccc1O [Eutypinol, 4-hydroxy-3-(3-methylbut-3-en-1-ynyl) benzylic alcohol]
Viability after 48 hours ([3]; 200 μM): 86
Viability after 48 hours ([3]; 500 μM): 83
toxicity to the grapevine ([3]; even at high concentrations): does not show toxicity

O=Cc1ccncc1 [4-pyridine carbaldehyde]
reduction by the ER protein [2]: reduced

C=C(C)C#Cc1cc(C=O)ccc1O [Eutypine, 4-hydroxy-3-(3-methylbut-3-en-1-ynyl) benzaldehyde]
concentration for inhibition of the consumption of oxygen [4]: above 160 μM
Detoxification activity [5]: 7.9 pmol/min/10^5 cells
Detoxification activity [6]: 13.6 pmol/min/10^5 cells
Detoxification activity [7]: 10.1 pmol/min/10^5 cells
symptoms of the disease ([8]; applied to grapevine vitroplants): reproduces certain symptoms of the disease
ultrastructural alterations in the leaves ([8]; leaves of vitroplants): induces ultrastructural alterations
concentration for complete decoupling of the mitochondria [9]: ~150 µM
viability at 48 h, 100 µM ([10]; 100 μM): 67%
viability at 48 h, 200 µM ([10]; 200 μM): 0%
development of calluses [11]: do not develop
LD50 (eutypine concentration causing the mortality of 50%) ([12]; GA transformed cells in suspension): 255 µM
LD50 (eutypine concentration causing the mortality of 50%) ([12]; GB transformed cells in suspension): 250 µM
LD50 (eutypine concentration causing the mortality of 50%) ([12]; GC transformed cells in suspension): 230 µM
LD50 (eutypine concentration causing the mortality of 50%) ([12]; GD transformed cells in suspension): 225 µM
LD50 (eutypine concentration causing the mortality of 50%) [13]: 100 µM
tolerance of protoplasts to eutypine [14]: lower tolerance
penetration into the grapevine cells [15]: passive diffusion
development of calluses [16]: does not exhibit necroses
Mean mass of a callus ([17]; 500 μM of eutypine, UBT): 150 mg
growth of the calluses ([17]; 500 μM, transformed UB variety): practically unaffected
Mean mass of a callus ([18]; 500 μM of eutypine, UBWT): 25 mg
development of calluses ([18]; 500 μM, wildtype variety): necrose rapidly and do not develop

2-fluoraldehyde
reduction by the ER protein [2]: reduced

CCCCCCCCCC=O [decylaldehyde]
reduction by the ER protein [2]: reduced

B1: protein corresponding to the VRER gene: polypeptide of 325 amino acids from Vigna radiata with eutypine reductase activity, SEQ ID NO. 4 (protein)
chain: MSTAAGKLVCVTGASGYIASWLVKFLLERGYTVKATVRDTNDPKKVDHLLSLDGAKERLHLVKANLLEEGSFDSAVEGVHAVFHTASPFFNDAKDPQTELLDPAVKGTLNVLKSCVNSPTLKRVVLTSSIAAVAFSDRPKNPDVVVDETWYSDPEYCKRTGLWYNLSKTLAEDAAWKFAKENNIDLVTMNPALVVGPLLQPVLNTSAAIVLGLVNGAKTFKNASLGWVDVKDVALAHILAYENASANGRYLLVERVAHFGDAAKILRDLYPTLQIPDKCEDDKPLEPIFQVSKEKAKSLGIDYIPLEVSLKDTVESLKEKKFLKV
eutypine reductase activity [19]: exhibits a “eutypine reductase” activity in vitro
